{
  "source": "paper PMC10266789",
  "about": "(The Journal of Clinical Investigation, 2023)",
  "key": {"[1]": {"test_system": "HCMV TB40/E-mCherry-UL99eGFP", "assay": "HCMV delayed treatment protocol, infected cell area in MRC-5", "conditions": "for IC50: Human betaherpesvirus 5, MRC5, 120 h, 5 days of treatment"}, "[2]": {"test_system": "c-Myc in MDA-MB-231 breast adenocarcinoma cells", "assay": "Western blot of c-Myc in MDA-MB-231 cells", "assay_type": "cell-based, human", "conditions": "72 hours", "method": "(§1) Supplemental Figure 1. […] (A) HepG2 cells were treated with FLS- […]\n(§2) determined by western blot. Total a-tubulin was monitored as a control. (B) MDA-MB-231 cells or (C) MRC-5 fibroblasts were treated with drug for 72h and c-Myc was monitored by western blot with b-actin as a control. Western blots are representative of three independent experiments.\n(§3) (1 picture or pasted object on this page, not shown here)"}, "[3]": {"test_system": "Betacoronavirus 1 (strain OC43)", "conditions": "HCoV-OC43/human MRC-5"}, "[4]": {"test_system": "SARS-CoV-2 (strain USA-WA1/2020)", "assay": "microbe, parasite or virus in culture", "conditions": "Severe acute respiratory syndrome coronavirus 2, Calu-3, in Homo sapiens, read-out: IC50, SARS-CoV-2"}, "[5]": {"test_system": "Hepatitis B virus (genotype D, subtype ayw)", "conditions": "Hepatitis B/human PHH"}, "[6]": {"test_system": "HCMV TB40/E-mCherry-UL99eGFP", "assay": "Infectivity of HCMV progeny particles (DNase I-resistant viral DNA vs TCID50)", "assay_type": "cell-based, human cytomegalovirus"}, "[7]": {"test_system": "SARS-CoV-2 (strain USA-WA1/2020)", "conditions": "SARS-CoV-2/human Calu3"}, "HCMV DNA": {"test_system": "HCMV DNA", "assay": "Intracellular HCMV DNA accumulation by qPCR in MRC-5", "assay_type": "cell-based, human cytomegalovirus", "conditions": "72 hours"}, "[8]": {"test_system": "Hepatitis B virus (genotype D, subtype ayw)", "assay": "microbe, parasite or virus in culture", "conditions": "Hepatocyte, read-out: IC50, Hepatitis B"}, "[9]": {"test_system": "HCMV TB40/E-mCherry-UL99eGFP", "conditions": "Human betaherpesvirus 5, read-out: HCMV virus yield IC50"}, "[10]": {"test_system": "Zika virus (strain DAK41525)", "conditions": "Zika/human HFF"}, "[11]": {"test_system": "HCMV TB40/E-mCherry-UL99eGFP", "assay": "HCMV virus yield at 72 hpi by TCID50 (3 IU/cell)", "assay_type": "cell-based, human cytomegalovirus", "conditions": "Figure 8C"}, "[12]": {"test_system": "acetylated α-tubulin in HepG2 cells", "assay": "Western blot of acetylated α-tubulin in HepG2 cells", "assay_type": "cell-based, human", "conditions": "24 hours, plus 1 µM trichostatin A", "method": "as §1, §2, §3"}, "HCMV TB40/E": {"test_system": "HCMV TB40/E", "assay": "Human lung-only mouse model of HCMV infection", "assay_type": "in vivo, lung-only mice (NSG)", "conditions": "day 17; TCID50; FLS-359 50 mg/kg p.o. b.i.d.; ganciclovir 100 mg/kg i.p. daily; P < 0.04"}, "[13]": {"assay": "Host cell cytotoxicity, HFF", "conditions": "human, HFF cells"}, "[14]": {"assay": "Host cell cytotoxicity, Calu3", "assay_type": "cell-based", "conditions": "Calu3 cells; human Calu3; SARS-CoV-2 assay"}, "HCMV virions": {"test_system": "HCMV virions", "parameters": "species or system human cytomegalovirus", "conditions": "1 or 5 μM; 96 hours at 37°C"}, "recombinant human SIRT1": {"molecular_target": "T1, recombinant human SIRT1 (Homo sapiens, UniProt Q96EB6)", "T1 construct": "purified, recombinant SIRT2^2–389, SIRT1^1–747, or SIRT3^1–400 protein (GenScript); purchased GenScript", "T1 sequence (Q96EB6 1-747)": "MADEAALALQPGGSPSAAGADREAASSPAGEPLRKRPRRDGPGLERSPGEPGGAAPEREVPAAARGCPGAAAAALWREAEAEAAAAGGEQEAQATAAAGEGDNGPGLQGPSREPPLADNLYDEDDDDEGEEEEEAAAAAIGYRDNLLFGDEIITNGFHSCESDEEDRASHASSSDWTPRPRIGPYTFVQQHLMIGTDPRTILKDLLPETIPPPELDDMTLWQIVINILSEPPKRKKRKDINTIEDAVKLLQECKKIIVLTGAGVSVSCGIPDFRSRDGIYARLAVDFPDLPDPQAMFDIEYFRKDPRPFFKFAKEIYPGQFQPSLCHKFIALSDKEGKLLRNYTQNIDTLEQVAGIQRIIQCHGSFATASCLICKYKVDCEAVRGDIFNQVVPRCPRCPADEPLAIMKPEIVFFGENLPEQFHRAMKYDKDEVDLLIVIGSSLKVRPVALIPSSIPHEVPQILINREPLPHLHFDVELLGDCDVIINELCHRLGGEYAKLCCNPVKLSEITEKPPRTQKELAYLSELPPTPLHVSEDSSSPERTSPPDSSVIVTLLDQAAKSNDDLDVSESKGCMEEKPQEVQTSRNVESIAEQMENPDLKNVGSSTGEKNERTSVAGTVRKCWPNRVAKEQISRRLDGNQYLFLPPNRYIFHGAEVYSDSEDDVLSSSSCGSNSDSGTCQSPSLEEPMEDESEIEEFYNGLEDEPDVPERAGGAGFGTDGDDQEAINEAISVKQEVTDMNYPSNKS", "assay": "SIRT deacylase assay, deacetylation of Ac-H3K9WW peptide, mass spectrometry", "assay_type": "biochemical", "conditions": "Figure 1C; n = 3"}},
  "note": "Like-named read-outs stand apart in the source and are kept apart here.",
  "data": [
    {"smiles": "Cc1cn(-c2ccc3c(c2)CN(c2ncc(Cc4ccc(-n5cccn5)cc4)s2)CC3)c(C)n1", "note": "[FLS-359, 7-(2,4-dimethyl-1H-imidazol-1-yl)-2-(5-{[4-(1H-pyrazol-1-yl)phenyl]methyl}-1,3-thiazol-2-yl)-1,2,3,4-tetrahydroisoquinoline]", "values": [
      {"measurement": "IC50", "setting": "[1]; read-out: IC50, infected cell area, drug added at 0 hpi, 0.1 IU/cell", "value": 900, "unit": "nM"},
      {"measurement": "IC50", "setting": "[1]; read-out: IC50, infected cell area, drug added at 24 hpi", "value": 600, "unit": "nM"},
      {"measurement": "IC50", "setting": "[1]; read-out: IC50, infected cell area, drug added at 48 hpi", "value": 800, "unit": "nM"},
      {"measurement": "IC50", "setting": "[1]; read-out: IC50, infected cell area, drug added at 72 hpi", "value": 900, "unit": "nM"},
      {"measurement": "IC50", "setting": "[1]; read-out: IC50, infected cell area, drug added at 96 hpi", "value": 900, "unit": "nM"},
      {"measurement": "Maximum Fold-Reduction in infected cell area", "setting": "[1]; drug added at 0 hpi", "value": 11.6},
      {"measurement": "Maximum Fold-Reduction in infected cell area", "setting": "[1]; drug added at 24 hpi", "value": 33.4},
      {"measurement": "Maximum Fold-Reduction in infected cell area", "setting": "[1]; drug added at 48 hpi", "value": 21.2},
      {"measurement": "Maximum Fold-Reduction in infected cell area", "setting": "[1]; drug added at 72 hpi", "value": 17.6},
      {"measurement": "Maximum Fold-Reduction in infected cell area", "setting": "[1]; drug added at 96 hpi", "value": 21.8},
      {"measurement": "c-Myc protein level", "setting": "[2]", "value": "dramatically reduced"},
      {"measurement": "SI CC50/IC50", "setting": "[3]", "value": ">30.1"},
      {"measurement": "IC50", "setting": "[4]", "value": 300, "unit": "nM"},
      {"measurement": "SI CC50/IC50", "setting": "[5]", "value": ">2.1"},
      {"measurement": "reduction of particle/infectious unit ratio (infectivity)", "setting": "[6]; 1.0 μM, 2 hpi to 96 hpi, 1 IU/cell", "value": 14.5, "unit": "factor"},
      {"measurement": "reduced infectivity", "setting": "[6]; 2.5 or 5.0 μM, 2 hpi to 96 hpi", "value": "more than 1,690 fold"},
      {"measurement": "reduction in extracellular virus particles", "setting": "[6]; Figure 8E", "value": "approximately 70 fold"},
      {"measurement": "reduction of viral infectivity", "setting": "[6]; Figure 8E, discussion", "value": "more than 1,600 fold"},
      {"measurement": "SI CC50/IC50", "setting": "[7]", "value": 52.7},
      {"measurement": "intracellular viral DNA accumulation", "setting": "HCMV DNA; 3 IU/cell", "value": "compromised"},
      {"measurement": "reduction in intracellular viral DNA levels", "setting": "HCMV DNA; Figure 8B", "value": "approximately 3 fold"},
      {"measurement": "IC50", "setting": "[8]", "value": 4800, "unit": "nM"},
      {"measurement": "IC50", "setting": "[9]", "value": 560, "unit": "nM"},
      {"measurement": "SI CC50/IC50", "setting": "[10]", "value": 104.0},
      {"measurement": "production of infectious virus", "setting": "[11]; 72 hpi, TCID50", "value": "reduced the production of infectious virus to below the limit of quantification"},
      {"measurement": "reduction in infectious virus", "setting": "[11]; 72 hours", "value": "more than 1,000 fold"},
      {"measurement": "increase of acetylated α-tubulin level", "setting": "[12]", "value": "about 3 factor"},
      {"measurement": "production of infectious HCMV progeny in human lung implants", "setting": "HCMV TB40/E", "value": "significantly reduced the production of infectious HCMV progeny"},
      {"measurement": "CC50", "setting": "[13]", "value": 41600, "unit": "nM"},
      {"measurement": "CC50", "setting": "[14]", "value": 15800, "unit": "nM"},
      {"measurement": "effect of incubating virus stock with drug on infectivity", "setting": "HCMV virions", "value": "no significant effect on infectivity"},
      {"measurement": "IC50", "setting": "recombinant human SIRT1", "value": "> 100000", "unit": "nM"}
    ]}
  ]
}
